Conditions: Hot wire method

C=C(F)C(F)(F)F [2,3,3,3-tetrafluoro-1-propene]
Conditions | thermal conductivity [W/m/K]
241.92 K, 6085 kPa, Liquid | 0.08525
241.92 K, 10976 kPa, Liquid | 0.08707
241.93 K, 15764 kPa, Liquid | 0.08965
241.94 K, 69 kPa, Gas | 0.00942
241.95 K, 77 kPa, Gas | 0.00944
241.95 K, 20987 kPa, Liquid | 0.09158
241.97 K, 86 kPa, Gas | 0.00944
242 K, 880 kPa, Liquid | 0.08218
242.01 K, 6088 kPa, Liquid | 0.08496
242.01 K, 10981 kPa, Liquid | 0.08718
242.02 K, 15753 kPa, Liquid | 0.08918
242.19 K, 69 kPa, Gas | 0.00931
242.2 K, 78 kPa, Gas | 0.00934
242.22 K, 87 kPa, Gas | 0.00935
242.34 K, 883 kPa, Liquid | 0.08243
242.34 K, 10985 kPa, Liquid | 0.08732
242.34 K, 15757 kPa, Liquid | 0.08916
242.35 K, 6087 kPa, Liquid | 0.08514
242.35 K, 20980 kPa, Liquid | 0.09106
242.35 K, 21022 kPa, Liquid | 0.09102
242.46 K, 15754 kPa, Liquid | 0.08876
242.47 K, 69 kPa, Gas | 0.00926
242.47 K, 78 kPa, Gas | 0.00926
242.47 K, 886 kPa, Liquid | 0.08219
242.47 K, 6087 kPa, Liquid | 0.08483
242.47 K, 10989 kPa, Liquid | 0.08709
242.5 K, 87 kPa, Gas | 0.00928
242.52 K, 87 kPa, Gas | 0.00925
242.54 K, 68 kPa, Gas | 0.00927
242.54 K, 76 kPa, Gas | 0.00929
242.8 K, 20976 kPa, Liquid | 0.09105
242.81 K, 10986 kPa, Liquid | 0.08711
242.81 K, 15750 kPa, Liquid | 0.08896
242.81 K, 21021 kPa, Liquid | 0.09106
242.83 K, 6086 kPa, Liquid | 0.08481
242.85 K, 891 kPa, Liquid | 0.08226
242.88 K, 87 kPa, Gas | 0.00926
242.9 K, 77 kPa, Gas | 0.00929
242.91 K, 68 kPa, Gas | 0.0093
242.94 K, 15756 kPa, Liquid | 0.08889
242.96 K, 10985 kPa, Liquid | 0.08695
242.98 K, 6086 kPa, Liquid | 0.08445
243 K, 892 kPa, Liquid | 0.082
243.28 K, 86 kPa, Gas | 0.00928
243.29 K, 21014 kPa, Liquid | 0.09132
243.3 K, 77 kPa, Gas | 0.0093
243.3 K, 20966 kPa, Liquid | 0.09102
243.31 K, 69 kPa, Gas | 0.00933
243.32 K, 10987 kPa, Liquid | 0.08693
243.32 K, 15749 kPa, Liquid | 0.0891
243.35 K, 6084 kPa, Liquid | 0.08459
243.38 K, 894 kPa, Liquid | 0.08224
243.47 K, 15756 kPa, Liquid | 0.08884
243.5 K, 10983 kPa, Liquid | 0.08672
243.53 K, 6087 kPa, Liquid | 0.0843
243.57 K, 898 kPa, Liquid | 0.08198
243.7 K, 86 kPa, Gas | 0.00931
243.73 K, 78 kPa, Gas | 0.00931
243.75 K, 69 kPa, Gas | 0.00935
243.84 K, 20954 kPa, Liquid | 0.09109
243.85 K, 21009 kPa, Liquid | 0.09114
243.87 K, 15753 kPa, Liquid | 0.08885
243.9 K, 10980 kPa, Liquid | 0.0868
243.94 K, 6082 kPa, Liquid | 0.08438
243.98 K, 898 kPa, Liquid | 0.08174
244.07 K, 15757 kPa, Liquid | 0.08866
244.11 K, 10979 kPa, Liquid | 0.08646
244.16 K, 86 kPa, Gas | 0.00935
244.16 K, 6088 kPa, Liquid | 0.08418
244.2 K, 78 kPa, Gas | 0.00935
244.21 K, 900 kPa, Liquid | 0.08153
244.22 K, 69 kPa, Gas | 0.00937
251.4 K, 100 kPa, Gas | 0.0102
251.41 K, 121 kPa, Gas | 0.01025
251.42 K, 129 kPa, Gas | 0.01024
251.64 K, 100 kPa, Gas | 0.01009
251.65 K, 121 kPa, Gas | 0.01014
251.66 K, 129 kPa, Gas | 0.01016
251.9 K, 121 kPa, Gas | 0.00997
251.91 K, 100 kPa, Gas | 0.01002
251.91 K, 121 kPa, Gas | 0.01007
251.91 K, 130 kPa, Gas | 0.01
251.92 K, 129 kPa, Gas | 0.01009
251.93 K, 100 kPa, Gas | 0.00998
252.23 K, 121 kPa, Gas | 0.00999
252.23 K, 130 kPa, Gas | 0.00999
252.28 K, 100 kPa, Gas | 0.01003
252.6 K, 122 kPa, Gas | 0.01002
252.6 K, 130 kPa, Gas | 0.01
252.67 K, 100 kPa, Gas | 0.01006
253 K, 129 kPa, Gas | 0.01005
253.01 K, 121 kPa, Gas | 0.01006
253.09 K, 100 kPa, Gas | 0.01007
253.43 K, 129 kPa, Gas | 0.01006
253.45 K, 121 kPa, Gas | 0.01008
253.53 K, 100 kPa, Gas | 0.0101
261.38 K, 995 kPa, Liquid | 0.07662
261.4 K, 996 kPa, Liquid | 0.07661

Liquid
Conditions | thermal conductivity [W/m/K]
243.15 K | 0.08189
253.15 K | 0.07836
